Experimental data taken from patent US11350582B2, “Plant varieties by application of endocides” (Stephen F. Austin State University, priority 2015, dated 2022).
Like-named read-outs stand apart in the source and are kept apart here.

Key:
[1] = system: common species associate with S. molesta or species growing in nearby habitats; test: Field selectivity test on associated plant species (Example 16); format: in vivo; details: 0.5% with 0.25% soap; after two foliar applications
Protocol: General Experimental Procedure: Field experiments were conducted in an isolated pond in east Texas, United States. The pond was infested with type III S. molesta plants that formed dense mats along the edge and type I and II plants floating on the water surface. 4-hydroxybenzoic and 3,4-dihydroxybenzoic acids were purchased from a commercial source (99.9%, HPLC analysis). 500 m^2 of S. molesta was treated with 50 L 0.5% 4-hydroxybenzoic acid mixed with 0.25% DAWN® dish soap and 500 m^2 of S. molesta was treated with 50 L 0.5% 3,4-dihydroxybenzoic acid mixed with 0.25% DAWN® dish soap by Solo 433 motorized backpack sprayer. Plant growth and survival status were documented through photographs and the living biomass was sampled 48 hrs after each treatment. The experimental species for selectivity tests were mainly common species associate with S. molesta or species growing in nearby habitats. […]

dihuang = details: in vivo; cited from earlier work
Salvinia molesta = test: Greenhouse spray test on giant salvinia, living biomass; format: in vivo; details: for type of new growth / decrease of living biomass weight compared to the water control: 1% concentration; for type of new growth: compound alone; for decrease of living biomass weight compared to the water control: nine days after the treatment; for Living Biomass (mean ± s.d.): 10 mL spray on three type III plants per container, day nine
Protocol: General Experimental Procedure: Observations of giant salvinia growth in a greenhouse were performed under 28 different treatment conditions and control conditions with NANOPURE™ water or 0.5% DYNE-AMIC® (methyl esters of C16-C18 fatty acids, polyalkyleneoxide modified polydimethylsiloxane, and alkylphenol ethoxylate 99%, (Helena, Collierville, Tenn., United States)) (v:v).
Materials—4-hydroxybenzoic acid (>95%, HPLC analysis) and 3,4-dihydroxybenzoic acid (>95%) were isolated from S. molesta matter using the method as described in (Li, Wang et al. 2013). Ethylparaben (>99%) was purchased from a commercial source. Each of 4-hydroxybenzoic acid, 3,4-dihydroxybenzoic acid, and ethylparaben were prepared as 50 mL experimental solutions with NANOPURE™ water at the concentration of 0.5, 1.0, 1.5, and 2.0%, respectively. 0.5, 1.0, 1.5, and 2.0% 4-hydroxybenzoic acid, 3,4-dihydroxybenzoic acid, and ethylparaben with 0.5% surfactant DYNE-AMIC® was also prepared as 50 mL experimental solutions with NANOPURE™ water. Mixtures of 4-hydroxybenzoic acid with 3,4-dihydroxybenzoic acid (2:1, w:w) were prepared as 50 mL experimental solutions with NANOPURE™ water at the total concentration of 0.5, 1.0, and 1.5%, respectively. 3,4-dihydroxybenzoic acid was mixed with ethylparaben (2:1, w:w) and prepared as 50 mL experimental solution with NANOPURE™ water at the total concentration of 0.5, 1.0, and 1.5%, respectively.
Bioassay—For each treatment, a total of nine healthy and untreated living plants of S. molesta (type III, the biomass of three plants weighs approximately 10 g) were cultured in tap water in three plastic containers severing as three replications (14×15 cm, 0.68 L) with three plants each in a greenhouse (30° C. during the day time and 20° C. at night). The three plants in each of the three containers per treatment were sprayed with 10 mL NANOPURE™ water, 0.5% DYNE-AMIC®, or the experimental solution. Plant growth and survival status were documented and photographed in each treatment on day nine after the treatment. Pairwise comparisons for all treatments (including Control) in living biomass were made using Tukey test at alpha=0.05, which was done using SAS (SAS 9.4).

S. molesta [2] = test: Field test in an isolated pond, foliar spray with DAWN dish soap (Example 16); format: in vivo, Salvinia molesta; details: 0.5% with 0.25% soap; for small S. molesta plants dead: 48 h after the first treatment; for new growths induced (small plants): after first treatment; for fate of newly emerged type I plants: after the second treatments; for type III S. molesta plants on the top layer of the dense mats killed or severely injured: within 48 hrs of the first treatment
Protocol: General Experimental Procedure: Field experiments were conducted in an isolated pond in east Texas, United States. The pond was infested with type III S. molesta plants that formed dense mats along the edge and type I and II plants floating on the water surface. 4-hydroxybenzoic and 3,4-dihydroxybenzoic acids were purchased from a commercial source (99.9%, HPLC analysis). 500 m^2 of S. molesta was treated with 50 L 0.5% 4-hydroxybenzoic acid mixed with 0.25% DAWN® dish soap and 500 m^2 of S. molesta was treated with 50 L 0.5% 3,4-dihydroxybenzoic acid mixed with 0.25% DAWN® dish soap by Solo 433 motorized backpack sprayer. Plant growth and survival status were documented through photographs and the living biomass was sampled 48 hrs after each treatment. The experimental species for selectivity tests were mainly common species associate with S. molesta or species growing in nearby habitats. The species included one fern species, Carolina mosquito fern (A. caroliniana), and 11 herbaceous invasive aquatic species of angiosperms (flowering plants), namely, water hyacinth (Eichharnia crassipes (Mart.) Solms) of the family Pontederiaceae, least duckweed (Lemna minuta) and Brazilian watermeal (Wolffia brasillensis Weddell) of the family Araceae, and hydrilla (Hydrilla verticillata (L.f.) Royle) of the family Hydrocharitaceae, alligator weed (Alternanthera philoxeroides Griseb.) of the family Amaranthaceae, knotweed (Polygonum sp.) and redvine (Brunnichia ovata Walter) of the family Polygonaceae, water primrose (Ludwigia sp.) of the family Onagraceae, cattail (Typha latifolia L.) of the family Typhaceae, proliferating bulrush (Isolepis prolifera (Rottb.) R. Br.) of the family Cyperaceae, and coontail (Ceratophyllum demersum L.) of the family Ceratophyllaceae and four woody plants, namely, baldcypress (Taxodium distichum (L.) Rich.) of the family Cupressaceae, loblolly pine (Pinus taeda L.) of the family Pinaceae, Chinese tallow (T. sebifera), and buttonbush (Cephalanthus occidentalis L.) of the family Rubiaceae. At least 30 plants for each of 12 herbaceous species and three seedlings of each of the four woody species were sprayed during the treatment of S. molesta.

S. molesta [3] = test: Phytotoxic analysis by pipet application on upper or lower leaf surface; format: in vivo, Salvinia molesta; details: Salvinia molesta, topical, 72 h
Protocol: General Experimental Procedure: 4-Hydroxybenzoic and 3,4-dihydroxybenzoic acids and 14 of their analogs were purchased commercially. Each of 16 compounds were prepared as 5 mL experimental solutions with NANOPURE™ water at 1% concentration. A total of 102 healthy and untreated living type III plants of S. molesta (approximately 10 g in fresh weight each) were cultured and tested in 17 plastic containers (23×23 cm, 2.37 L) with six plants in each container in a greenhouse (30° C. during the day time and 20° C. at night). The first container served as the controls without any treatment, the plants in each of the other 16 containers were treated by one of the 16 testing compounds, respectively. The plants in each container were randomly classified into two groups evenly. For each plant in the first group, 10 μL of 1% experimental solution was applied by pipet on the upper surface of each blade of the six pairs of large floating leaves close to the terminal bud. For each plant in the second group, 10 μL of 1% experimental solution was applied by pipet on the lower surface of each blade of the six pairs of large floating leaves close to the terminal bud. The leaf surfaces were examined for damage and analyzed 72 hrs after the treatments.

Row | Structure (SMILES) | damage to other species tested for selectivity [1] | effect on growth of dihuang (dihuang) | type of new growth (Salvinia molesta) | decrease of living biomass weight compared to the water control (Salvinia molesta) [%] | Living Biomass (mean ± s.d.) (Salvinia molesta; total concentration 0.5%) [g] | Living Biomass (mean ± s.d.) (Salvinia molesta; total concentration 1.0%) [g] | Living Biomass (mean ± s.d.) (Salvinia molesta; total concentration 1.5%) [g] | Living Biomass (mean ± s.d.) (Salvinia molesta; total concentration 2.0%) [g] | small S. molesta plants dead (S. molesta [2]) [%] | new growths induced (small plants) (S. molesta [2]) | fate of newly emerged type I plants (S. molesta [2]) | type III S. molesta plants on the top layer of the dense mats killed or severely injured (S. molesta [2]) [%] | pest or weed control at 1 % (S. molesta [3]; read-out: Inhibition (%) Lower leaf Application, 10 μL of 1% solution per blade, lower surface) [%] | pest or weed control at 1 % (S. molesta [3]; read-out: Inhibition (%) Upper leaf Application, 10 μL of 1% solution per blade, upper surface) [%] | S. molesta plants eliminated (Salvinia molesta; 2% concentration) [%] | pest or weed control at 1 % (S. molesta [3]; 10 μL of 1% solution per blade, lower surface, read-out: Inhibition (%) Lower leaf Application) [%] | pest or weed control at 1 % (S. molesta [3]; 10 μL of 1% solution per blade, upper surface, read-out: Inhibition (%) Upper leaf Application) [%]
1 | O=C(O)c1ccc(O)c(O)c1 [3,4-dihydroxybenzoic acid] | none of the other species tested for selectivity except A. caroliniana were severely damaged or killed | inhibit some growth | type I only | 76.5 | 17.1 | 9.2 | 14.3 | 5.8 | > 80 | type I only | all newly emerged type I plants were killed | 100 | 72.2 | > 85 |  |  | 
2 | O=C(O)c1ccc(O)cc1 [4-Hydroxybenzoic acid] | none of the other species tested for selectivity except A. caroliniana were severely damaged or killed | inhibit some growth | type I only | 85.5 | 20.1 | 4.3 | 2.3 | 0 | > 90 | type I only | all newly emerged type I plants were killed | 100 |  |  | 100 | 100 | > 85
